Test results published in patent US9956291B2, “Nanoformulation and methods of use of thyroid receptor beta1 agonists for liver targeting” (priority 2012, dated 2018).

Legend:
LDLR [1] = test: Test for LDLR up-regulation in transfected HEK-293 cells; format: cell-based, human
Description: (§1) The expression vector of human LDLR was constructed under the control of the cytomegalovirus promoter-enhancer (pCMV-LDLR). These constructs were used to transiently transfect mammalian cells, and cells were subjected to SDS-PAGE and immunoblot analysis using an LDLR antibody. […] Using this assay, compounds were tested for their ability to reduce the degradation of the LDLR. HEK-293 cells grown in 96-well plates overnight and transfected with LDLR were used. Compounds dissolved in DMSO or vehicle were added to the culture media, and incubated for 24-48 hours. The cells were then lysed. Both cell lysate and supernatant are subjected to quantitation using the above immunoassay. Compounds that increase the up-regulation of LDLR were selected. A similar assay was implemented using the HepG2 cells, since these cells express the LDLR endogenously.

LDLR [2] = test: Test for LDLR up-regulation in HepG2 cells (endogenous LDLR); format: cell-based, human
Description: as §1

high fat diet mice = test: Nutritionally-induced hypercholesterolemia model (high fat diet mice); format: in vivo
Description: Mice were fed a high fat diet (TD.06414, Harlan Research Diet, Inc., Indianapolis, Ind.) that provides […] from fat sources increased total cholesterol. […] Male C57BL/6 mice were fed either a commercial chow diet (Prolab RMH 3000, PMI feeds, St. Louis, Mo.) to serve as a negative control, or a high fat diet (TD.06414). Plasma was collected once weekly to monitor the level of LDL-C, total cholesterol, HDL-C, and triglyceride. […] One group was treated with vehicle, and the other groups are treated with TRβ1 agonist compounds versus its Nano-targeted ones at different doses.
High-fat diet (HFD)-induced dyslipidemia in mice. FIG. 12 depicts dose-ranging of Chitosan-PLGA NP-encapsulated GC-1 and conjugated with Glycyrrhetinic acid versus un-encapsulated GC-1 for lowering total cholesterol in HFD mice, in accordance with embodiments of the present invention.

[3] = cited from earlier work
[4] = in vivo; cited from earlier work
cartilage = settings: dogs, up to 12 months; cited from earlier work
[5] = moderately overweight and hypercholesterolemic subjects, two weeks

Structure (SMILES)	LDLR up-regulation (LDLR [1])	LDLR up-regulation (LDLR [2])	dose of maximum effect on total cholesterol (toward normal regular diet levels) (high fat diet mice; IP daily, week 1 and week 2)	lowering of total cholesterol (high fat diet mice; IP daily, week 1 and week 2, dose-ranging)	lowering serum cholesterol and triglyceride ([3]; Phase I clinical trial)	serum cholesterol and triglyceride [4]	reduction of serum total cholesterol (high fat diet mice; 0.1 mg/Kg daily for 6 days)	effects on the heart [3, 5]	serum total and LDL cholesterol, apoB levels [3, 5]	cartilage damage (cartilage)
Cc1cc(OCC(=O)O)cc(C)c1Cc1ccc(O)c(C(C)C)c1 [GC-1]	None of the TR beta agonists including GC-1, KB-2115 or their nanoformulations resulted in any significant changes	None of the TR beta agonists including GC-1, KB-2115 or their nanoformulations resulted in any significant changes	1.0 mg/kg	dose-dependent lowering of total cholesterol	effective in lowering serum cholesterol and triglyceride	lower serum cholesterol and triglyceride				
CC(C)c1cc(Oc2c(Br)cc(NC(=O)CC(=O)O)cc2Br)ccc1O [KB-2115]	None of the TR beta agonists including GC-1, KB-2115 or their nanoformulations resulted in any significant changes	None of the TR beta agonists including GC-1, KB-2115 or their nanoformulations resulted in any significant changes				lower serum cholesterol and triglyceride	60-80%	without detectable effects on the heart	reduced	Cartilage damage was observed
